The record followed here is patent US9475816B2, “Substituted-1,4-dihydropyrazolo[4,3-b]indoles” (TAKEDA PHARMACEUTICAL COMPANY LIMITED, priority 2012, dated 2016).

The structures appear in SMILES notation.

Experiment [1] concerns the target T1, human MetAP2 enzyme (Homo sapiens, UniProt P50579). The experiment can be described thus: MetAP2 enzyme assay, MetAP2 enzyme complexed with manganese ions. The settings on record: MetAP2 Mn pIC50, 10 μM MnCl2; -log(IC50), IC50 molar.
Experiment [2] deals with T1, human MetAP2 enzyme. In words: MetAP2 enzyme assay, MetAP2 enzyme complexed with cobalt ions. The settings on record: MetAP2 Co pIC50, 10 μM CoCl2; -log(IC50), IC50 molar.
Method: DNA encoding the full-length sequence of human MetAP2 enzyme is amplified by PCR and cloned into a pFastBac expression vector (Invitrogen). Recombinant baculovirus incorporating the MetAP2 construct is generated by transposition using the Bac-to-Bac system (Invitrogen). The expression of recombinant protein is carried out by infection of Spodoptera frugiperda Sf9 cells (Invitrogen) in 5L Wave Bioreactors (Wave Biotech). Recombinant protein is isolated from cellular extracts by binding to an SP Hitrap Fast Flow or SP Sepharose (Sigma) column, and the protein is eluted using a NaCl gradient. Partially purified extracts of MetAP2 are further purified by an AKTA FPLC over a Superdex-200 column (GE). The purity of MetAP2 protein is determined on denaturing SDS-PAGE gel.
The results for each well are expressed as percent inhibition and calculated using the equation:

T1 sequence (P50579 whole entry): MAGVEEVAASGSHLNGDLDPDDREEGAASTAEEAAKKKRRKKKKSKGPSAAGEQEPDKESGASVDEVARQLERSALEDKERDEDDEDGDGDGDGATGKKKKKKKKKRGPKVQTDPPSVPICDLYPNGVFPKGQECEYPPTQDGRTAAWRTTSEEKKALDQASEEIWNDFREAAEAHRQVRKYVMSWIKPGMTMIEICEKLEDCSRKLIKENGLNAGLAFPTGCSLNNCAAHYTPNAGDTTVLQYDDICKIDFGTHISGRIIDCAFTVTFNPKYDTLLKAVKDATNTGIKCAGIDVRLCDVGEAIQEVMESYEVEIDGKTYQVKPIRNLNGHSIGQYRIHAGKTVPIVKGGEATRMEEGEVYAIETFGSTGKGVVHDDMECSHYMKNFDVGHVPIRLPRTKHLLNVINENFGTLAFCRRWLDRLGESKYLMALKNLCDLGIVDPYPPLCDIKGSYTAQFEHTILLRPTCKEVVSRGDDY

As to `Fc1ccc2c(c1)c1[nH]ncc1n2Cc1ccccc1` [Example 1, 4-Benzyl-7-fluoro-1,4-dihydropyrazolo[4,3-b]indole], the half-maximal inhibitory concentration (IC50) (in general, the concentration needed to halve the response being measured) against human MetAP2 enzyme [1] was 31.6 nM; against human MetAP2 enzyme [2], 39.8 nM.
For `Fc1cc2c3[nH]ncc3n(Cc3ccccc3)c2cc1F` [Example 2, 4-Benzyl-6,7-difluoro-1,4-dihydropyrazolo[4,3-b]indole], the values for the IC50 against human MetAP2 enzyme [1] and against human MetAP2 enzyme [2] were 50.1 nM and 100 nM, respectively.
In the same order, the values of `Cc1nc(N2CC[C@@H](O)C2)ccc1-n1c2ccc(F)cc2c2[nH]ncc21` [Example 6, (3R)-1-(5-(7-Fluoropyrazolo[4,3-b]indol-4(1H)-yl)-6-methylpyridin-2-yl)pyrrolidin-3-ol] are 6.31 nM and 6.31 nM.
For the compound `Cc1nc(N2CCN(C)CC2)ccc1-n1c2ccc(F)cc2c2[nH]ncc21` [Example 7, 7-Fluoro-4-(2-methyl-6-(4-methylpiperazin-1-yl)pyridin-3-yl)-1,4-dihydropyrazolo[4,3-b]indole], the values for the half-inhibitory concentration (IC50) against human MetAP2 enzyme [1] and against human MetAP2 enzyme [2] were 12.6 nM and 15.8 nM, respectively.
On to `CN1CCN(c2cc(-n3c4ccc(F)cc4c4[nH]ncc43)ccn2)CC1` [Example 8, 7-Fluoro-4-(2-(4-methylpiperazin-1-yl)pyridin-4-yl)-1,4-dihydropyrazolo[4,3-b]indole], for which the IC50 against human MetAP2 enzyme [1] is 5.01 nM; against human MetAP2 enzyme [2], 25.1 nM.
Take `Cc1c(-n2c3ccc(F)cc3c3[nH]ncc32)ccc2nn(C)cc12` [Example 9, 4-(2,4-Dimethyl-2H-indazol-5-yl)-7-fluoro-1,4-dihydropyrazolo[4,3-b]indole]: the 50% inhibitory concentration (IC50) on human MetAP2 enzyme [1] is 6.31 nM; against human MetAP2 enzyme [2], 10 nM.
Take `Cc1ccc(-n2c3ccc(F)cc3c3[nH]ncc32)c(C)n1` [Example 10, 4-(2,6-Dimethylpyridin-3-yl)-7-fluoro-1,4-dihydropyrazolo[4,3-b]indole]: the IC50 against human MetAP2 enzyme [1] is 7.94 nM; at human MetAP2 enzyme [2], 12.6 nM.
As to `Cc1cccc(-n2c3ccc(F)cc3c3[nH]ncc32)n1` [Example 11, 7-Fluoro-4-(6-methylpyridin-2-yl)-1,4-dihydropyrazolo[4,3-b]indole], the IC50 on human MetAP2 enzyme [1] was 6.31 nM; on human MetAP2 enzyme [2] it was 100 nM.
For the compound `Cc1nc(NC[C@@H](C)O)ccc1-n1c2ccc(F)cc2c2[nH]ncc21` [Example 12, (2R)-1-((5-(7-Fluoropyrazolo[4,3-b]indol-4(1H)-yl)-6-methylpyridin-2-yl)amino)propan-2-ol], the figures for the half-inhibitory concentration (IC50) against human MetAP2 enzyme [1] and against human MetAP2 enzyme [2] were 5.01 nM and 12.6 nM, respectively.
With `Cc1cc2cnn(C)c2cc1-n1c2ccc(F)cc2c2[nH]ncc21` [Example 14, 4-(1,5-Dimethyl-1H-indazol-6-yl)-7-fluoro-1,4-dihydropyrazolo[4,3-b]indole], the IC50 against human MetAP2 enzyme [1] and against human MetAP2 enzyme [2] was 7.94 nM throughout.
Regarding `Cc1cc2nn(C)cc2cc1-n1c2ccc(F)cc2c2[nH]ncc21` [Example 15, 4-(2,6-Dimethyl-2H-indazol-5-yl)-7-fluoro-1,4-dihydropyrazolo[4,3-b]indole], the IC50 at human MetAP2 enzyme [1] and against human MetAP2 enzyme [2] was 10 nM in each case.
For the compound `Cc1cc2cn(C)nc2cc1-n1c2ccc(F)cc2c2[nH]ncc21` [Example 16, 4-(2,5-Dimethyl-2H-indazol-6-yl)-7-fluoro-1,4-dihydropyrazolo[4,3-b]indole], the IC50 against human MetAP2 enzyme [1] is 6.31 nM; at human MetAP2 enzyme [2], 7.94 nM.
`Cc1c(-n2c3ccc(F)cc3c3[nH]ncc32)ccc2c1cnn2C` [Example 17, 4-(1,4-Dimethyl-1H-indazol-5-yl)-7-fluoro-1,4-dihydropyrazolo[4,3-b]indole]: the IC50 against human MetAP2 enzyme [1] was 6.31 nM; against human MetAP2 enzyme [2] it was 7.94 nM.
In the same order, the values of `Nc1ncc(C(=O)O)cc1-n1c2ccc(F)cc2c2[nH]ncc21` [Example 18, 6-Amino-5-(7-fluoropyrazolo[4,3-b]indol-4(1H)-yl)nicotinic acid] are 63.1 nM and 100 nM.
As to `Cc1cc2[nH]ncc2cc1-n1c2ccc(F)cc2c2[nH]ncc21` [Example 19, 7-Fluoro-4-(6-methyl-1H-indazol-5-yl)-1,4-dihydropyrazolo[4,3-b]indole], the IC50 at human MetAP2 enzyme [1] and at human MetAP2 enzyme [2] was 12.6 nM each time.
In the case of `Cc1nc(N2CC[C@@H](C(N)=O)C2)ncc1-n1c2ccc(F)cc2c2[nH]ncc21` [Example 20, (3R)-1-(5-(7-Fluoropyrazolo[4,3-b]indol-4(1H)-yl)-4-methylpyrimidin-2-yl)pyrrolidine-3-carboxamide], the results for the IC50 on human MetAP2 enzyme [1] and against human MetAP2 enzyme [2] were 6.31 nM and 12.6 nM, respectively.
Regarding `Cc1nc(N2CC[C@H](C(N)=O)C2)ncc1-n1c2ccc(F)cc2c2[nH]ncc21` [Example 21, (3S)-1-(5-(7-Fluoropyrazolo[4,3-b]indol-4(1H)-yl)-4-methylpyrimidin-2-yl)pyrrolidine-3-carboxamide], the IC50 on human MetAP2 enzyme [1] is 7.94 nM; on human MetAP2 enzyme [2] it was 15.8 nM.
On to `N#Cc1[nH]ncc1-n1c2ccc(F)cc2c2[nH]ncc21` [Example 22, 4-(7-Fluoropyrazolo[4,3-b]indol-4(1H)-yl)-1H-pyrazole-5-carbonitrile], for which the values for the 50% inhibitory concentration (IC50) on human MetAP2 enzyme [1] and at human MetAP2 enzyme [2] were 10 nM and 31.6 nM, respectively.
As for `CCn1nc(C)c(-n2c3ccc(F)cc3c3[nH]ncc32)c1C` [Example 23, 4-(1-Ethyl-3,5-dimethyl-1H-pyrazol-4-yl)-7-fluoro-1,4-dihydropyrazolo[4,3-b]indole], the results for the IC50 on human MetAP2 enzyme [1] and against human MetAP2 enzyme [2] were 15.8 nM and 10 nM, respectively.
With `Cc1nc(N2CCC[C@@H](O)C2)ncc1-n1c2ccc(F)cc2c2[nH]ncc21` [Example 24, (3R)-1-(5-(7-Fluoropyrazolo[4,3-b]indol-4(1H)-yl)-4-methylpyrimidin-2-yl)piperidin-3-ol], the IC50 is 3.98 nM against human MetAP2 enzyme [1] and 6.31 nM against human MetAP2 enzyme [2].
Consider `Fc1ccc2c(c1)c1[nH]ncc1n2-c1cnn2c1CNCC2` [Example 25, 7-Fluoro-4-(4,5,6,7-tetrahydropyrazolo[1,5-a]pyrazin-3-yl)-1,4-dihydropyrazolo[4,3-b]indole], for which the IC50 was 12.6 nM at human MetAP2 enzyme [1] and 25.1 nM at human MetAP2 enzyme [2].
As for `Cc1cc2cn[nH]c2cc1-n1c2ccc(F)cc2c2[nH]ncc21` [Example 26, 7-Fluoro-4-(5-methyl-1H-indazol-6-yl)-1,4-dihydropyrazolo[4,3-b]indole], the IC50 against human MetAP2 enzyme [1] is 7.94 nM; against human MetAP2 enzyme [2] it was 10 nM.
Turning to `Cc1nc(N2CC[C@H](O)C2)ccc1-n1c2ccc(F)cc2c2[nH]ncc21` [Example 27, (3S)-1-(5-(7-Fluoropyrazolo[4,3-b]indol-4(1H)-yl)-6-methylpyridin-2-yl)pyrrolidin-3-ol], the IC50 against human MetAP2 enzyme [1] was 3.98 nM; against human MetAP2 enzyme [2], 6.31 nM.
The matching figures for `Cc1c(-n2c3ccc(F)cc3c3[nH]ncc32)cnc2[nH]c(=O)[nH]c12` [Example 28, 6-(7-Fluoropyrazolo[4,3-b]indol-4(1H)-yl)-7-methyl-1H-imidazo[4,5-b]pyridin-2(3H)-one]: 5.01 nM and 6.31 nM.
As to `Cc1nc(N2CCC(O)CC2)ncc1-n1c2ccc(F)cc2c2[nH]ncc21` [Example 29, 1-(5-(7-Fluoropyrazolo[4,3-b]indol-4(1H)-yl)-4-methylpyrimidin-2-yl)piperidin-4-ol], the IC50 was 7.94 nM against human MetAP2 enzyme [1] and 6.31 nM against human MetAP2 enzyme [2].
In the same order, the values of `CCn1cnc2cc(-n3c4ccc(F)cc4c4[nH]ncc43)c(C)nc21` [Example 30, 4-(3-Ethyl-5-methyl-3H-imidazo[4,5-b]pyridin-6-yl)-7-fluoro-1,4-dihydropyrazolo[4,3-b]indole] are 6.31 nM and 3.98 nM.
Take `COCCn1cnc2cc(-n3c4ccc(F)cc4c4[nH]ncc43)c(C)nc21` [Example 31, 7-Fluoro-4-(3-(2-methoxyethyl)-5-methyl-3H-imidazo[4,5-b]pyridin-6-yl)-1,4-dihydropyrazolo[4,3-b]indole]: the IC50 at human MetAP2 enzyme [1] is 10 nM; against human MetAP2 enzyme [2], 7.94 nM.
In the case of `Cc1nc2[nH]c(=O)n(CCO)c2cc1-n1c2ccc(F)cc2c2[nH]ncc21` [Example 32, 6-(7-Fluoropyrazolo[4,3-b]indol-4(1H)-yl)-1-(2-hydroxyethyl)-5-methyl-1H-imidazo[4,5-b]pyridin-2(3H)-one], the IC50 was 10 nM at human MetAP2 enzyme [1] and 7.94 nM against human MetAP2 enzyme [2].
The matching figures for `Cc1nc2c(cc1-n1c3ccc(F)cc3c3[nH]ncc31)[nH]c(=O)n2C[C@H](O)CO` [Example 33, 3-((S)-2,3-Dihydroxypropyl)-6-(7-fluoropyrazolo[4,3-b]indol-4(1H)-yl)-5-methyl-1H-imidazo[4,5-b]pyridin-2(3H)-one]: 10 nM and 7.94 nM.
As for `Cc1nc(N2CC[C@H](F)C2)ncc1-n1c2ccc(F)cc2c2[nH]ncc21` [Example 34, 7-Fluoro-4-(2-((S)-3-fluoropyrrolidin-1-yl)-4-methylpyrimidin-5-yl)-1,4-dihydropyrazolo[4,3-b]indole], the figures for the IC50 against human MetAP2 enzyme [1] and against human MetAP2 enzyme [2] were 79.4 nM and 63.1 nM, respectively.
In the same order, the values of `Cc1nc(N2CC[C@@H](N(C)C)C2)ncc1-n1c2ccc(F)cc2c2[nH]ncc21` [Example 35, (3R)-1-(5-(7-Fluoropyrazolo[4,3-b]indol-4(1H)-yl)-4-methylpyrimidin-2-yl)-N,N-dimethylpyrrolidin-3-amine] are 79.4 nM and 39.8 nM.
With `Cc1nc(N2CC[C@@H](F)C2)ncc1-n1c2ccc(F)cc2c2[nH]ncc21` [Example 36, 7-Fluoro-4-(2-((R)-3-fluoropyrrolidin-1-yl)-4-methylpyrimidin-5-yl)-1,4-dihydropyrazolo[4,3-b]indole], the IC50 was 63.1 nM against human MetAP2 enzyme [1] and 39.8 nM against human MetAP2 enzyme [2].
On to `Cc1nc(N2CCC[C@H](O)C2)ncc1-n1c2ccc(F)cc2c2[nH]ncc21` [Example 37, (3S)-1-(5-(7-Fluoropyrazolo[4,3-b]indol-4(1H)-yl)-4-methylpyrimidin-2-yl)piperidin-3-ol], for which the IC50 at human MetAP2 enzyme [1] and against human MetAP2 enzyme [2] was 6.31 nM throughout.
Turning to `CNC(=O)[C@@H]1CCCN1c1ncc(-n2c3ccc(F)cc3c3[nH]ncc32)c(C)n1` [Example 38, (2S)-1-(5-(7-Fluoropyrazolo[4,3-b]indol-4(1H)-yl)-4-methylpyrimidin-2-yl)-N-methylpyrrolidine-2-carboxamide], the results for the IC50 against human MetAP2 enzyme [1] and on human MetAP2 enzyme [2] were 7.94 nM and 6.31 nM, respectively.
